Tests used:
Type in all cases: cell-based, human
[1] = test system: Aβ42; test: Aβ42 in FAD1 iPS cell-derived nerve cells (primary/secondary screening, dose dependency); conditions: secondary screening, FAD1 iPS cell-derived nerve cells, numerical value (Aβ change rate)
Excerpt: (§1) To perform induction from iPS cells to the cerebral cortex nerve early and with high reproducibility, iPS cells introduced with human Neurogenin 2 gene (NGN2) linked to doxycycline-inducible promoter by using PiggyBac were used (FIG. 1a, FIG. 1b, FIG. 4a and FIG. 4b). IPS cells prepared from 4 patients with familial Alzheimer's disease (FAD), 2 patients with sporadic Alzheimer's disease (SAD) and 4 healthy individuals (HC) were used. The iPS cells were established by the method described in Okita K et al., Nature.
(§2) Structural formulas (those in the form of salt or halide are also described as free form) and the general names of the candidate compounds are shown in Table 1.
(§3) To further study reproducibility of the candidate drugs obtained by the primary screening, secondary screening was conducted. In addition to Aβ40, Aβ42, Aβ42/40 ratio, Aβ38, Aβ43, sAPPα, sAPPβ were also studied and each numerical value was obtained.

[2] = test system: Aβ42/40 ratio; test: Aβ42/40 ratio in FAD1 iPS cell-derived nerve cells (primary/secondary screening, dose dependency); conditions: secondary screening
Excerpt: as §1, §2, §3

[3] = test system: Aβ38; test: Aβ38 in FAD1 iPS cell-derived nerve cells (secondary screening); design: scale not given here
Method: as §3

[4] = test system: Aβ43; test: Aβ43 in FAD1 iPS cell-derived nerve cells (secondary screening); design: scale not given here
Method: as §3

[5] = test system: sAPPα; test: sAPPα in FAD1 iPS cell-derived nerve cells (secondary screening); design: scale not given here; conditions: secondary screening, FAD1 iPS cell-derived nerve cells
Method: as §3

[6] = test system: sAPPβ; test: sAPPβ in FAD1 iPS cell-derived nerve cells (secondary screening); design: sAPPβ: scale not given here; conditions: secondary screening, FAD1 iPS cell-derived nerve cells
Method: as §3

Compound | Aβ42 [1] | Ratio Aβ42/40 [2] | Aβ38 [3] | Aβ43 [4] | sAPPα [5] | sAPPβ [6]
CN1Cc2c(N)cccc2C(c2ccccc2)C1 (stereo not drawn) [compound 28, NOMIFENSINE] | 0.8 | 0.75 | 0.95 | 0.85 | 0.82 | 0.67
CSc1ccc2c(c1)C(N1CCN(C)CC1)Cc1ccccc1S2 (stereo not drawn) [compound 31, METITEPINE] | 0.83 | 0.86 | 1.03 | 0.88 | 0.76 | 0.66
O=C(O)CCNC(=O)c1ccccc1 [compound 32, BETAMIPRON] | 0.84 | 0.82 | 1.1 | 0.82 | 0.7 | 0.6
CCN(CC)CCNC(C(=O)OCCC(C)C)c1ccccc1 (stereo not drawn) [compound 33, CAMYLOFINE] | 0.9 | 0.85 | 1.12 | 0.88 | 0.89 | 0.71
O=C(CCNNC(=O)c1ccncc1)NCc1ccccc1 [compound 34, NIALAMIDE] | 0.92 | 0.87 | 1.16 | 0.97 | 0.92 | 1.13
O=S(=O)(O)c1cc(I)c(O)c2ncccc12 [compound 35, CHINIOFON] | 0.83 | 0.86 | 1.05 | 0.79 | 0.71 | 0.6
c1cnc(N2CCN(Cc3ccc4c(c3)OCO4)CC2)nc1 [compound 36, PIRIBEDIL] | 0.87 | 0.83 | 1.11 | 1.09 | 0.92 | 0.82
O=C(O)c1cccnc1Nc1cccc(C(F)(F)F)c1 [compound 37, NIFLUMIC ACID] | 0.77 | 0.86 | 0.97 | 0.85 | 0.8 | 0.92
CC1(C)C(C=C(Cl)Cl)C1C(=O)OC(C#N)c1cccc(Oc2ccccc2)c1 (stereo not drawn) [compound 38, CYPERMETHRIN] | 0.83 | 0.87 | 0.97 | 0.95 | 0.85 | 0.88
COc1ccccc1N1CCN(CC(O)COc2cccc3ccccc23)CC1 (stereo not drawn) [compound 39, NAFTOPIDIL] | 0.86 | 0.86 | 1.1 | 0.9 | 0.73 | 0.64
CC1CC(OC(=O)C(O)c2ccccc2)CC(C)(C)C1 (stereo not drawn) [compound 40, CYCLANDELATE] | 0.88 | 0.8 | 1.09 | 0.98 | 0.92 | 0.84
C=C[C@H]1CN2CC[C@H]1C[C@H]2[C@H](OC(=O)OCC)c1ccnc2ccc(OC)cc12 [compound 41, QUININE ETHYL CARBONATE] | 0.85 | 0.77 | 1.05 | 0.88 | 0.84 | 0.72
CC[N+]1(C)CCCC(OC(=O)C(O)(c2ccccc2)c2ccccc2)C1 (stereo not drawn) [compound 42, PIPENZOLATE] | 1.09 | 1.04 | 1.3 | 1.12 | 1.11 | 1.27
c1ccc2c(c1)OCC(C1=NCCN1)O2 (stereo not drawn) [compound 43, IDAZOXAN] | 0.93 | 0.99 | 1.03 | 0.97 | 0.84 | 0.81
CC(C(O)c1ccc(O)cc1)N1CCC(Cc2ccccc2)CC1 (stereo not drawn) [compound 44, IFENPRODIL] | 1 | 0.96 | 1.23 | 1.03 | 1.13 | 1.09
O=c1c2ccccc2[se]n1-c1ccccc1 [compound 45, EBSELEN] | 1 | 1.04 | 1.2 | 1.16 | 1.17 | 1.35
CC[C@H](C)C(=O)O[C@H]1C[C@@H](C)C=C2C=C[C@H](C)[C@H](CC[C@@H]3C[C@@H](O)CC(=O)O3)[C@H]21 [compound 46, LOVASTATIN] | 0.98 | 0.88 | 1.17 | 1.09 | 1.01 | 1.06
NCC(=O)CCC(=O)O [compound 47, AMINOLEVULINIC ACID] | 1.06 | 0.97 | 1.29 | 1.16 | 1.15 | 1.4
CCCCC(=O)N(Cc1ccc(-c2ccccc2-c2nn[nH]n2)cc1)[C@H](C(=O)O)C(C)C [compound 48] | 0.97 | 0.9 | 1.14 | 1 | 1.14 | 1.13
NCCCCCC(=O)O [compound 49, AMINOCAPROIC ACID] | 0.96 | 1 | 1.1 | 0.97 | 0.99 | 0.9
Nc1ccc(C(=O)O)c(O)c1 [compound 50, AMINOSALICYLATE] | 1.03 | 1.08 | 1.2 | 1.22 | 1 | 1.31
CCOC(=O)c1ccc(N)cc1 [compound 51, BENZOCAINE] | 0.94 | 1.03 | 1.05 | 0.99 | 0.8 | 0.87
CCCCOC(=O)c1ccc(O)cc1 [compound 53, BUTYL PARABEN] | 0.94 | 1.02 | 1.04 | 0.81 | 0.74 | 0.69
COc1ccc(C(=O)c2ccccc2O)c(O)c1 [compound 54, DIOXYBENZONE] | 0.93 | 1.02 | 1.16 | 0.83 | 0.72 | 0.75
CCCCOc1ccc(C(=O)CCN2CCCCC2)cc1 [compound 55, DYCLONINE] | 0.94 | 0.99 | 1.07 | 0.9 | 0.83 | 0.76
O=C(O)C(O)[C@H](O)[C@@H](O)[C@H](O)[C@H](O)CO (stereo partly drawn) [compound 56, GLUCOHEPTONIC ACID] | 0.98 | 1.09 | 1.21 | 1.32 | 1.22 | 1.19
